Values joined by “and” are separate entries in the source; they are usually repeats but may differ in a detail not shown here. Identical values can stand only once. “Also recorded” adds a separate entry of the source.
Key:
[1] = test system: kidney tissues of treated or untreated rats; assay: Real-time qRT-PCR of signature amplicons, validation stage, labeled and un-labeled samples (Table 23); conditions: for H31883_DB71_seg13 normalized qRT-PCR result / MUSCYCG1R_DB81_seg19-20 normalized qRT-PCR result / W41270_DB81_seg11 normalized qRT-PCR result: labeled sample, one line per animal
How it was run: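 Rat kidney RNA, labeled and un-labeled samples, run over seven plates; two amplicons per signature gene (wild-type and splice variant). Values normalized to housekeeping genes, then per plate and amplicon by geometric mean of ratios against a shuffled normalization plate (outliers removed), then scaled.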

[2] = test system: Sprague-Dawley Crl:CD(SD) rats; conditions: rat, in vivo;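 further: control rats received saline intraperitoneally, and the organs examined were adrenals, brain, kidneys, liver, spleen and thymus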
Experimental: (§1) Control animals were treated intraperitoneal with saline.
(§2) Randomization and group allocation: prior to treatment, the animals were assigned to the experimental groups based on their body weight. Mean body weight of each group at randomization was not deviate±20% of the mean population weight. Males and females were randomized separately. For the randomization, a computer program was used.
(§3) The day before autopsy, urinalysis was performed and blood samples were taken for hematology and clinical chemistry examinations.
(§4) On the day of autopsy the animals were anaesthetized with isoflurane, blood was collected for PBMC isolation then subjected to autopsy. Tissues and organs (adrenals, brain, kidneys, liver, spleen and thymus) were weighed and subjected to gross pathological and histopathological examinations.

[3] = test system: Sprague-Dawley Crl:CD(SD) rats; assay: Rat toxicity study, single, 5-day and 28-day treatment (clinical observation, clinical pathology, autopsy, organ weights, histopathology);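 further: control rats received saline intraperitoneally, and the organs examined were adrenals, brain, kidneys, liver, spleen and thymus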
Experimental: as §1, §2, §3, §4

[4] = day1, female rat kidney, listed as Tob
[5] = day1, male rat kidney, listed as Tob
[6] = day28, female rat kidney, listed as Tob
[7] = day28, male rat kidney, listed as Tob
[8] = labeled samples, day1, kidney of individual male/female rats, listed as Tob
[9] = labeled samples, day5, kidney of individual male/female rats, listed as Tob
[10] = labeled samples, day28, kidney of individual male/female rats, listed as Tob

**Q.** `NC[C@H]1O[C@H](O[C@H]2[C@H](O)[C@@H](O[C@H]3O[C@H](CO)[C@@H](O)[C@H](N)[C@H]3O)[C@H](N)C[C@@H]2N)[C@H](N)C[C@@H]1O` [Tobramycin] was tested. Which “H31883_DB71_seg13 normalized qRT-PCR result” value [1, 4] did it give?
**A.** 1.153 and 0.799 and 0.982

**Q.** What about the “MUSCYCG1R_DB81_seg19-20 normalized qRT-PCR result” value [1, 4] of the same molecule?
**A.** 5.307 and 1.195 and 1.623

**Q.** And the “W41270_DB81_seg11 normalized qRT-PCR result” value [1, 4]?
**A.** 1.5 and 0.73 and 1.166

**Q.** And the “H31883_DB71_seg13 normalized qRT-PCR result” value [1, 5]?
**A.** 1.126 and 0.999 and 1.049

**Q.** What about the “MUSCYCG1R_DB81_seg19-20 normalized qRT-PCR result” value [1, 5] of the same molecule?
**A.** 2.04 and 0.825 and 1.223

**Q.** And the “W41270_DB81_seg11 normalized qRT-PCR result” value [1, 5]?
**A.** 1.43 and 1.083 and 1.619

**Q.** And the “H31883_DB71_seg13 normalized qRT-PCR result” value [1, 6]?
**A.** 0.876 and 0.621 and 0.987

**Q.** What about the “MUSCYCG1R_DB81_seg19-20 normalized qRT-PCR result” value [1, 6] of the same molecule?
**A.** 0.959 and 1.021 and 1.478

**Q.** What about the “W41270_DB81_seg11 normalized qRT-PCR result” value [1, 6] of the same molecule?
**A.** 1.073 and 1.144 and 1.118

**Q.** What about the “H31883_DB71_seg13 normalized qRT-PCR result” value [1, 7] of the same molecule?
**A.** 0.39 and 0.832 and 0.803

**Q.** What about the “MUSCYCG1R_DB81_seg19-20 normalized qRT-PCR result” value [1, 7] of the same molecule?
**A.** 0.679 and 1.273 and 1.397

**Q.** What about the “W41270_DB81_seg11 normalized qRT-PCR result” value [1, 7] of the same molecule?
**A.** 0.61 and 1.379 and 1.281

**Q.** What about the “H31883_DB71_seg13 normalized qRT-PCR expression (Cyclin-G1 (CCNG1) transcript)” value [1, 8] of the same molecule?
**A.** 1.137 and 1.104 and 1.132 and 0.912 and 0.563 and 0.661

**Q.** And the “MUSCYCG1R_DB81_seg19-20 normalized qRT-PCR expression” value [1, 8]?
**A.** 1.582 and 0.967 and 1.506 and 1.173 and 1.025 and 0.987

**Q.** And the “W41270_DB81_seg11 normalized qRT-PCR expression (tumor necrosis factor receptor superfamily, member 12a transcript)” value [1, 8]?
**A.** 1.601 and 1.084 and 0.577 and 0.949 and 0.809 and 0.983

**Q.** What about the “AI045075_DB71_seg6 normalized qRT-PCR expression (Interferon stimulated exonuclease 20 (ISG20) transcript)” value [1, 9] of the same molecule?
**A.** 1.327 and 1.644 and 1.614 and 1.367 and 2.402 and 1.224

**Q.** And the “H31883_DB71_seg13 normalized qRT-PCR expression (Cyclin-G1 (CCNG1) transcript)” value [1, 9]?
**A.** 0.863 and 0.855 and 1.237 and 0.988 and 0.858 and 1.646

**Q.** What about the “MUSCYCG1R_DB81_seg19-20 normalized qRT-PCR expression” value [1, 9] of the same molecule?
**A.** 0.99 and 1.589 and 0.968 and 1.6 and 1.424 and 2.062

**Q.** What about the “W41270_DB81_seg11 normalized qRT-PCR expression (tumor necrosis factor receptor superfamily, member 12a transcript)” value [1, 9] of the same molecule?
**A.** 0.559 and 2.483 and 0.802 and 1.529 and 2.317 and 0.946

**Q.** And the “W64472_DB81_seg2 normalized qRT-PCR expression (Interferon stimulated exonuclease 20 (ISG20) transcript)” value [1, 9]?
**A.** 1.193 and 1.871 and 1.449 and 1.063 and 1.785 and 1.447

**Q.** And the “W83813_DB81_seg27 normalized qRT-PCR expression” value [1, 9]?
**A.** 0.589 and 1.262 and 0.892 and 1.058 and 0.942 and 1.117

**Q.** And the “H31883_DB71_seg13 normalized qRT-PCR expression (Cyclin-G1 (CCNG1) transcript)” value [1, 10]?
**A.** 0.624 and 0.324 and 0.69 and 0.528 and 0.551 and 0.807

**Q.** What about the “MUSCYCG1R_DB81_seg19-20 normalized qRT-PCR expression” value [1, 10] of the same molecule?
**A.** 0.713 and 0.76 and 1.087 and 0.889 and 1.268 and 0.903

**Q.** What about the “W41270_DB81_seg11 normalized qRT-PCR expression (tumor necrosis factor receptor superfamily, member 12a transcript)” value [1, 10] of the same molecule?
**A.** 1.189 and 1.217 and 1.099 and 1.267 and 1.373 and 1.798

**Q.** And the “Label: true label (Normal/Toxic), known renal toxic effect” value ([1]; rat, in vivo)?
**A.** Toxic

**Q.** And the Water consumption [2]?
**A.** Decrease in Tobramycin and Cadmium chloride treated females

**Q.** What about the Autopsy findings ([3]; 5-day treatment) of the same molecule?
**A.** No effect

**Q.** What about the Autopsy findings ([3]; 28-day treatment, male and female rats) of the same molecule?
**A.** Enlarged, discolored kidneys; also recorded: Alterations were found in the kidneys; also recorded: ♂: ↑↑, pale
